From PMC2206373, “Identification of an altered peptide ligand based on the endogenously presented, rheumatoid arthritis-associated, human cartilage glycoprotein-39(263–275) epitope: an MHC anchor variant peptide for immune modulation” (Arthritis Research & Therapy, 2007)
Where two headings read alike, the source gives them in different places. Non-standard residues stand in square brackets, D forms with d. Residues, ends and D or L forms follow the SMILES beside them. No end group written: not given here. *: point of attachment. Phe(4-NO2) = N[C@@H](Cc1ccc([N+](=O)[O-])cc1)C(=O)O; Phe(4-Cl) = N[C@@H](Cc1ccc(Cl)cc1)C(=O)O; Phe(4-F) = N[C@@H](Cc1ccc(F)cc1)C(=O)O; Phe(4-I) = N[C@@H](Cc1ccc(I)cc1)C(=O)O; hPhe = N[C@@H](CCc1ccccc1)C(=O)O; 3Pal = N[C@@H](Cc1cccnc1)C(=O)O; 2Thi = N[C@@H](Cc1cccs1)C(=O)O; Cha = N[C@@H](CC1CCCCC1)C(=O)O; Bn = c1ccc(C*)cc1

Tests used:
HLA-DR4(B1*0401) = HLA-DR4(B1*0401) (Homo sapiens, UniProt P01903+P01911, A100K/A169T/F76Y/I96L/K127E/L162R/M171V/N62H/P40V/Q125Y/R42H/S133A/S149N/S66Y/V115G/V209L/W38E); assay: HLA-DR4 competition peptide binding assay; conditions: competition with biotinylated HA307-319 (Y309F) 50 nM, purified HLA-DR4 30 nM, pH 5, 48 h, room temperature
Method: HLA-DR bound marker peptide was separated from free marker peptide and the amount of bound marker peptide was detected and quantified by enhanced chemoluminescense. Inhibition curves were generated and the IC50 was determined. The concentration of competitor peptide inducing 50% inhibition of marker peptide binding was determined, and expressed as the 50% inhibitory concentration (IC50 in μM).

T cell hybridoma 8B12 = assay: T hybridoma 8B12 IL-2 response; format: cell-based, mouse; conditions: Figure 1; IL-2 production, DRB1*0401 BLCL as APC; duplicate or triplicate; background 16,288 counts; ±30% of WT response = super/partial agonist
Method: (§1) The T cell hybridomas, provided by G Sonderstrup (Stanford, CA, USA), were generated as described. In brief, human CD4, HLA-DRA*101/HLA-DRB*0401 triple transgenic (HLA-DR4trg) mice (devoid of I-Aβ) were immunized in the footpad with 50 μg of purified HC gp-39 mixed in incomplete Freund's adjuvant (IFA). Draining lymph nodes were isolated and T-cell hybridomas were generated by polyethylene glycol fusion of primed and in vitro antigen-restimulated lymph node cells with the AKR BW5147 fusion partner. Following fusion, growth-positive hybridoma wells were screened for reactivity to HC gp-39 and a set of 55 peptides (16 amino acids in length) covering the entire HC gp-39 sequence. HLA-DR4(B1*0401)-restricted hybridomas responsive to both the HC gp-39 protein and the immunodominant epitope 263–275 of HC gp-39 (for example, 5G11, 8B12, 14G11 and 20H5) were cloned, subcloned, characterised and selected for further study.
(§2) HC gp-39-specific IL-2 production by T hybridomas was measured in wells of round-bottomed microtiter plates. Hybridoma cells (2 to 5 × 10^4) and irradiated APC (0.5 to 1 × 10^5; 12,000 to 16,000 RAD) from the B lymphoblastoid cell line (BLCL) carrying the DRB1*0401 specificity were incubated in 150 μl volumes. Antigen was added in 50 μl volumes to duplicate wells. After 48 h, 100 μl of the culture supernatant was assayed for IL-2 production using a sandwich ELISA with Pharmingen antibodies specific for mouse IL-2. The antigen sensitivity of the hybridomas to both peptide and protein was determined (Figure 2). […] In later assays, an excess of peptide or APL (10 μg/ml), inducing maximal responses in all hybridomas, was tested.

T cell hybridoma 14G11 = assay: T hybridoma 14G11 IL-2 response; format: cell-based, mouse; conditions: Figure 1; IL-2 production, DRB1*0401 BLCL as APC; duplicate or triplicate; background 7,152 counts; ±30% of WT response = super/partial agonist
Method: as §1, §2

T cell hybridoma 5G11 = assay: T hybridoma 5G11 IL-2 response; format: cell-based, mouse; conditions: Figure 1; IL-2 production, DRB1*0401 BLCL as APC; duplicate or triplicate; background 29,203 counts; ±30% of WT response = super/partial agonist
Method: as §1, §2

[1] = Table 1, geometric mean of two experiments, read-out: HLA-DR binding IC50
[2] = Figure 1, read-out: DRB1*0401 binding IC50
[3] = Table 2, read-out: HLA-DR binding IC50

IC50 (HLA-DR4(B1*0401); [2])	IC50 (HLA-DR4(B1*0401); [3])	Molecule	T hybridoma (SI) 5G11 (T cell hybridoma 5G11)	other results
9 nM	–	CC(C)C[C@H](NC(=O)[C@@H](NC(=O)[C@H](Cc1ccc(Cl)cc1)NC(=O)[C@H](CO)NC(=O)[C@@H](N)CCCNC(=N)N)[C@@H](C)O)C(=O)N[C@@H](C)C(=O)N[C@@H](CO)C(=O)N[C@@H](CO)C(=O)N[C@@H](CCC(=O)O)C(=O)N[C@H](C(=O)NCC(=O)N[C@H](C(=O)NCC(=O)O)C(C)C)[C@@H](C)O [Compound 31] (H-RS[Phe(4-Cl)]TLASSETGVG-OH)	32 SI	T hybridoma (SI) 8B12 (T cell hybridoma 8B12): 14 SI; T hybridoma (SI) 14G11 (T cell hybridoma 14G11): 29 SI
–	40 nM	RSFTLASSEAGVG [Compound 19]	–	–
–	60 nM	RSFTLASSETGAG [Compound 21]	–	–
< 9 nM	–	CC(C)C[C@H](NC(=O)[C@@H](NC(=O)[C@H](Cc1ccc(I)cc1)NC(=O)[C@H](CO)NC(=O)[C@@H](N)CCCNC(=N)N)[C@@H](C)O)C(=O)N[C@@H](C)C(=O)N[C@@H](CO)C(=O)N[C@@H](CO)C(=O)N[C@@H](CCC(=O)O)C(=O)N[C@H](C(=O)NCC(=O)N[C@H](C(=O)NCC(=O)O)C(C)C)[C@@H](C)O [Compound 33] (H-RS[Phe(4-I)]TLASSETGVG-OH)	26 SI	–
16 nM	–	CC(C)C[C@H](NC(=O)[C@@H](NC(=O)[C@H](Cc1cccnc1)NC(=O)[C@H](CO)NC(=O)[C@@H](N)CCCNC(=N)N)[C@@H](C)O)C(=O)N[C@@H](C)C(=O)N[C@@H](CO)C(=O)N[C@@H](CO)C(=O)N[C@@H](CCC(=O)O)C(=O)N[C@H](C(=O)NCC(=O)N[C@H](C(=O)NCC(=O)O)C(C)C)[C@@H](C)O [Compound 29] (H-RS[3Pal]TLASSETGVG-OH)	23 SI	T hybridoma (SI) 8B12 (T cell hybridoma 8B12): 19 SI; T hybridoma (SI) 14G11 (T cell hybridoma 14G11): 44 SI
7 nM	–	CC(C)C[C@H](NC(=O)[C@@H](NC(=O)[C@H](COCc1ccccc1)NC(=O)[C@H](CO)NC(=O)[C@@H](N)CCCNC(=N)N)[C@@H](C)O)C(=O)N[C@@H](C)C(=O)N[C@@H](CO)C(=O)N[C@@H](CO)C(=O)N[C@@H](CCC(=O)O)C(=O)N[C@H](C(=O)NCC(=O)N[C@H](C(=O)NCC(=O)O)C(C)C)[C@@H](C)O [Compound 35] (H-RSS(Bn)TLASSETGVG-OH)	28 SI	T hybridoma (SI) 8B12 (T cell hybridoma 8B12): 20 SI; T hybridoma (SI) 14G11 (T cell hybridoma 14G11): 31 SI
9 nM	–	CC(C)C[C@H](NC(=O)[C@@H](NC(=O)[C@H](Cc1cccs1)NC(=O)[C@H](CO)NC(=O)[C@@H](N)CCCNC(=N)N)[C@@H](C)O)C(=O)N[C@@H](C)C(=O)N[C@@H](CO)C(=O)N[C@@H](CO)C(=O)N[C@@H](CCC(=O)O)C(=O)N[C@H](C(=O)NCC(=O)N[C@H](C(=O)NCC(=O)O)C(C)C)[C@@H](C)O [Compound 26] (H-RS[2Thi]TLASSETGVG-OH)	23 SI	T hybridoma (SI) 8B12 (T cell hybridoma 8B12): 18 SI; T hybridoma (SI) 14G11 (T cell hybridoma 14G11): 31 SI
7 nM	–	CC(C)C[C@H](NC(=O)[C@@H](NC(=O)[C@H](CC1CCCCC1)NC(=O)[C@H](CO)NC(=O)[C@@H](N)CCCNC(=N)N)[C@@H](C)O)C(=O)N[C@@H](C)C(=O)N[C@@H](CO)C(=O)N[C@@H](CO)C(=O)N[C@@H](CCC(=O)O)C(=O)N[C@H](C(=O)NCC(=O)N[C@H](C(=O)NCC(=O)O)C(C)C)[C@@H](C)O [Compound 25] (H-RS[Cha]TLASSETGVG-OH)	32 SI	T hybridoma (SI) 8B12 (T cell hybridoma 8B12): 18 SI; T hybridoma (SI) 14G11 (T cell hybridoma 14G11): 26 SI
12 nM	–	CC(C)C[C@H](NC(=O)[C@@H](NC(=O)[C@H](Cc1ccc(F)cc1)NC(=O)[C@H](CO)NC(=O)[C@@H](N)CCCNC(=N)N)[C@@H](C)O)C(=O)N[C@@H](C)C(=O)N[C@@H](CO)C(=O)N[C@@H](CO)C(=O)N[C@@H](CCC(=O)O)C(=O)N[C@H](C(=O)NCC(=O)N[C@H](C(=O)NCC(=O)O)C(C)C)[C@@H](C)O [Compound 30] (H-RS[Phe(4-F)]TLASSETGVG-OH)	29 SI	T hybridoma (SI) 8B12 (T cell hybridoma 8B12): 17 SI; T hybridoma (SI) 14G11 (T cell hybridoma 14G11): 27 SI
15 nM	–	CC(C)C[C@H](NC(=O)[C@@H](NC(=O)[C@H](CCc1ccccc1)NC(=O)[C@H](CO)NC(=O)[C@@H](N)CCCNC(=N)N)[C@@H](C)O)C(=O)N[C@@H](C)C(=O)N[C@@H](CO)C(=O)N[C@@H](CO)C(=O)N[C@@H](CCC(=O)O)C(=O)N[C@H](C(=O)NCC(=O)N[C@H](C(=O)NCC(=O)O)C(C)C)[C@@H](C)O [Compound 24] (H-RS[hPhe]TLASSETGVG-OH)	–	–
–	50 nM	RSFTLASSETGVA [Compound 22]	–	–
13 nM	–	CC(C)C[C@H](NC(=O)[C@@H](NC(=O)[C@H](Cc1ccc([N+](=O)[O-])cc1)NC(=O)[C@H](CO)NC(=O)[C@@H](N)CCCNC(=N)N)[C@@H](C)O)C(=O)N[C@@H](C)C(=O)N[C@@H](CO)C(=O)N[C@@H](CO)C(=O)N[C@@H](CCC(=O)O)C(=O)N[C@H](C(=O)NCC(=O)N[C@H](C(=O)NCC(=O)O)C(C)C)[C@@H](C)O [Compound 34] (H-RS[Phe(4-NO2)]TLASSETGVG-OH)	32 SI	T hybridoma (SI) 8B12 (T cell hybridoma 8B12): 20 SI; T hybridoma (SI) 14G11 (T cell hybridoma 14G11): 33 SI
–	50 nM	RSFTLASSETAVG [Compound 20]	–	–

Second part, the molecule before the results:

Molecule	IC50 (HLA-DR4(B1*0401); [2])	IC50 (HLA-DR4(B1*0401); [3])	T hybridoma (SI) 5G11 (T cell hybridoma 5G11)	other results
RSFTLASSETGV [Compound 2]	–	–	–	IC50 (HLA-DR4(B1*0401); [1]): 90 nM
RSFTLASSATGVG [Compound 18]	–	40 nM	–	–
RSFTLASSET [Compound 4]	–	–	–	IC50 (HLA-DR4(B1*0401); [1]): 7000 nM
RSFTLASAETGVG [Compound 17]	–	50 nM	–	–
RAFTLASSETGVG [Compound 11]	–	100 nM	–	–
SFTLASSETGV [Compound 9]	–	–	–	IC50 (HLA-DR4(B1*0401); [1]): 120 nM
SFTLASSETGVG [Compound 5]	–	–	–	IC50 (HLA-DR4(B1*0401); [1]): 90 nM
FTLASSETGVG [Compound 6]	–	–	–	IC50 (HLA-DR4(B1*0401); [1]): 110 nM
RSFALASSETGVG [Compound 13]	–	60 nM	–	–
RSFTLASSETG [Compound 3]	–	–	–	IC50 (HLA-DR4(B1*0401); [1]): 200 nM
ASFTLASSETGVG [Compound 10]	–	100 nM	–	–
RSFTLAASETGVG [Compound 16]	–	50 nM	–	–
RSFTAASSETGVG [Compound 14]	–	80 nM	–	–
